{
  "source": "paper PMC5471452",
  "about": "“Optical control of a receptor-linked guanylyl cyclase using a photoswitchable peptidic hormone” (Chemical Science, 2017)",
  "key": {"[1]": {"tested_on": "pancreatic beta cells in islets of Langerhans", "assay": "Calcium imaging of beta cells in intact islets of Langerhans", "format": "cell-based, CD1 mice", "conditions": "for effect on amplitude of intracellular Ca2+ fluxes in beta cells, in words: intact islets, 8 mM glucose, ANP 0.1–100 nM, TOP271 isomers 1–100 nM, n = 4–6 islets for each concentration", "experimental": "Reversibility could be achieved by applying cis-TOP271 and then illuminating with blue light (λ = 458–482 nm) to induce trans-isomerisation (Fig. 4i and j). Restoration of beta cell function was only partial (Fig. 4j), however, possibly due to cGMP-mediated sequestration of Ca^2+ into internal stores such as the endoplasmic reticulum.[61] […]\nCD1 mice were maintained in a specific pathogen-free facility under a 12 h light–dark cycle with ad libitum access to water and food. Animals were euthanized by cervical dislocation and islets isolated using collagenase digestion. Islets were cultured overnight in Roswell Park Memorial Institute (RPMI) medium supplemented with 10% foetal calf serum and 100 U/mL penicillin and 100 µg/mL streptomycin. No randomization was used for animal experimentation, since mice were only used as tissue donors.\nExperimental protocols were approved by the University of Birmingham's Animal Welfare and Ethical Review Body (AWERB) and carried out in accordance with the Animals (Scientific Procedures) Act 1986 of the United Kingdom.\nIslets were loaded for 40 min with Fluo8 (AAT Bioquest, Sunnyvale, CA, USA), before imaging using a Crest X-Light spinning disk head coupled to a Nikon Ti-E automated base and 10 x/0.4 NA objective. Pulsed excitation was delivered at λ = 458–482 nm (400 ms exposure; 0.33 Hz) via a Lumencor Spectra X Light Engine, and emitted signals detected at λ = 500–550 nm using a Photometrics Evolve Delta 512 EMCCD.\nIllumination to induce photoswitching was performed using either continuous exposure to λ = 458–482 nm or λ = 382–407 nm. In all cases, HEPES-bicarbonate buffer was used, containing in mM: 120 NaCl, 4.8 KCl, 24 NaHCO3, 0.5 Na2HPO4, 5 HEPES, 2.5 CaCl2, 1.2 MgCl2, 8 D-glucose. Ca2+ traces were normalized as F/Fmin (F = fluorescence at any given timepoint; Fmin = minimum fluorescence) and relative change in this value over time denoted by a scale bar.\nNon-multifactorial comparisons were made using Student’s t-test. Multifactorial comparisons were prepared using one-way ANOVA. Log-transformed concentration-response curves were fitted using non-linear regression and the Hill equation. All analyses were conducted using Graphpad Prism (Graphpad software) and IgorPro (WaveMetrics software), and results deemed significant * at P<0.05 or ** at P<0.01."}, "[2]": {"conditions": "ex vivo or in vivo, depending on cell environment or azoreductase expression; cited from earlier work", "excerpt": "Acting via the NPR-A receptor to generate cGMP, TOP271 allows the reversible photocontrol of contraction/dilation in aortic tissue, as well as Ca^2+ oscillations in rodent islets of Langerhans. Although photodependent cGMP synthesis was described earlier, these approaches rely on the genetically-encoded photosensitive proteins EROS[64],[65] or BeCyclOps,[66],[67] whereas TOP271 allows unprecedented photocontrolled cGMP synthesis in nativ ..."}, "[3]": {"tested_on": "murine thoracic aortic rings", "assay": "Aortic tensometry, pre-constricted aortic rings", "parameters": "species or system C57BL/6 mice", "conditions": "for vasodilation of pre-constricted aortic rings, in words: rings pre-contracted with 1 µM phenylephrine, 200 μM L-NAME and 3 μM diclofenac present, n = 6 aortic rings from 4 animals", "experimental": "We next sought to address whether TOP271 would allow the optical control of cGMP-dependent processes in a physiologically relevant system, i.e. the aortic ring preparation. […] Accordingly, we predicted that TOP271 would allow reversible, light-controlled vasoactive responses, with cis-TOP271 being the stronger effector at specific concentrations. […] Although this concentration–response indicated a significant difference in receptor activation for 100 nM TOP271, we decided to use 400 nM TOP271 to trigger a stronger isomer-dependent vasodilation.\nFig. 3 TOP271 allows photocontrol of aortic tissue. (a) Concentration-response curves for trans- and cis-TOP271. (b) Aortic relaxation for cycles in (d) and (e). […] (d, e) Reversible photocontrol over aortic tension by application of trans-TOP271 (d) and cis-TOP271 (e) with UV-/blue and blue/UV-light (365 and 460 nm) cycles, respectively. All experiments were conducted in the presence of 200 μM N-ω-nitro-L-arginine methyl ester (L-NAME) and 3 μM diclofenac, which were used to block the vascular relaxants nitric oxide and prostacyclin, respectively. PE = phenylephrine was used for initial vasoconstriction, IBMX = 3-iso-butyl-1-methylxanthine was used to induce complete muscular relaxation as an end point control. (n = 6 aortic rings from 4 animals) (*P < 0.05, **P < 0.01, repeated measures Student's t-test). Values represent the mean ± SEM. […]\nMurine thoracic aortic rings were mounted in a myograph as described recently16. In detail, thoracic aortas from C57BL/6 mice were explanted and cut into rings and mounted on fixed segment support pins in two four-chamber Myograph 610 (Danish Myo Technology, Aarhus, Denmark) containing 5 ml of Krebs–Henseleit solution (containing […]\nglucose, pH 7.4), bubbled with 95% O2 and 5% CO2. Resting tension was set to 5 mN in the presence of Diclofenac (3 µM) and N-nitro-L-arginine methyl ester (L-NAME) (200 µM). After equilibration (45 minutes at 37 °C), rings were pre-contracted with 1 µM phenylephrine (PE). Since aortic ring myography is sensitive to temperature fluctuations, effects of direct and indirect illumination on vasoactivity were determined. […] The vasorelaxing effects of pre-illuminated cis- and dark trans-TOP271 were assessed once a steady plateau was reached. […]\nwere prepared (10 mM in water), of which an aliquot of TOP271 was either pre-illuminated at λ = 365 nm using a UVP 3UV benchtop UV lamp to obtain the cis-isomer, or kept in the dark to maintain the trans-isomer. […] Read-out was conducted in between illumination cycles as soon as a steady plateau was reached to exclude any light dilational effects. […]"}, "NPR-A": {"biological_target": "T1, NPR-A (Homo sapiens, UniProt P16066)", "T1 construct": "expressed in transfected cells; host or cells: HEK293t cells (DSMZ #305), transiently co-transfected with pCMV5_GC-A and YFP", "T1 sequence (P16066 33-1061)": "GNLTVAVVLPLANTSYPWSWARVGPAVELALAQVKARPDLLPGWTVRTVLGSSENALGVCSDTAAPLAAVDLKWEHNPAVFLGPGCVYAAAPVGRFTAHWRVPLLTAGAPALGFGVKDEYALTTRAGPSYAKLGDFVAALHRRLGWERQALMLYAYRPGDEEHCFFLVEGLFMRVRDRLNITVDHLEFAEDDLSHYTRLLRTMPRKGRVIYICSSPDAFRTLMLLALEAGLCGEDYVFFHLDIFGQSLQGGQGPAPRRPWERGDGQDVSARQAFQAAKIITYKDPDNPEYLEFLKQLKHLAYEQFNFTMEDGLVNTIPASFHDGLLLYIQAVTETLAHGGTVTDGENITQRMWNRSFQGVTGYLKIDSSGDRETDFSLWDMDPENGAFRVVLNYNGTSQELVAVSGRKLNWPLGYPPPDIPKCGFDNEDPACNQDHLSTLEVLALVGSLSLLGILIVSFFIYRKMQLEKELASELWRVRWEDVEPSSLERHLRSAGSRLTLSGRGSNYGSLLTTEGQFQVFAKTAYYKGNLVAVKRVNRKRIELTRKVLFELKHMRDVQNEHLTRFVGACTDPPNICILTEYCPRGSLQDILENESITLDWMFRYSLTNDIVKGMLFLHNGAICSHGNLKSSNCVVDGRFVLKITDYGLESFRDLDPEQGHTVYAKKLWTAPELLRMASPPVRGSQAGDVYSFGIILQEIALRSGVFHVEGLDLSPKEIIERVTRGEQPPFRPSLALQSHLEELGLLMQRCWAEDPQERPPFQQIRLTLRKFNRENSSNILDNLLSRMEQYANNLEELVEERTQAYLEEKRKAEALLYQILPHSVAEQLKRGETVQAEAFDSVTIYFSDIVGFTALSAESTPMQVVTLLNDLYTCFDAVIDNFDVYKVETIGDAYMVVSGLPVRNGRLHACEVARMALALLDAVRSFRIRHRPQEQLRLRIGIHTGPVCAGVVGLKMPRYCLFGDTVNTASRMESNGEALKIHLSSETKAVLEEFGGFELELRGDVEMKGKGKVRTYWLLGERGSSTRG", "assay": "cGMP assay (HTRF) in HEK293T cells transiently transfected with NPR-A", "format": "cell-based", "conditions": "in vitro", "quoted_text": "To test cGMP synthesis, each peptide was applied as the trans- or cis-isomer by keeping them either in the dark or pre-illuminating with UV light (λ = 365 nm) for 15 minutes, respectively.\ncGMP assay in transiently transfected HEK293t cells\nHEK293t cells (obtained from the Leibniz-Institute DSMZ, Braunschweig, Germany, #305, regularly mycoplasma tested) were transfected with pCMV5_GC-A 4 and YFP using Lipofectamine 2000® (Life Science, Indianapolis, IN, USA) at >80% confluency in a T25 flask according to the manufacturer’s instructions. After 24 h, cells were checked by means of YFP fluorescence for successful transfection (>70% efficiency), washed once and harvested with 1 mL Hepes-Krebs-Ringer (HKR) buffer (containing in mM: 135 NaCl, 5 KCl, 1 MgSO4, 0.4 K2HPO4, 5.5 D-glucose, 20 HEPES, 1 CaCl2, pH = 7.4) supplemented with PDE inhibitors IBMX (500 µM, Tocris, Bristol, UK, #2840) and Ro\nµL of cell solution was pipetted into each well of a 384-well plate (white, flat bottom, Greiner, Frickenhausen, Germany). […] The resulting assays were incubated for 30 min before they were lysed and treated with a cGMP HTRF kit (Cisbio, Codolet, France) according to the manufacturer’s instructions. cGMP levels were read with a Omega platereader (BMG Labtech, Offenburg, Germany) after 1 h of incubation time and normalized according to the cGMP standards. […]"}, "[4]": {"conditions": "in benzene at 0 °C; cited from earlier work", "experimental": "As expected for an electron-poor azobenzene, all peptides were bistable (TOP271 Fig. 2c, TOP263-270 ESI Fig. 3 ^†). ^¶ ¶All peptides are available for academic use from the Hoffmann-Röder lab upon request. This advantageous trait allows samples to be pre-illuminated prior to application rather than needing constant illumination. […], and because the compounds were bistable, the initial back-relaxation was obtained as a linear function from the first 30 min after ceasing illumination. P ..."}},
  "data": [
    {"compound": "CC[C@H](C)[C@@H]1NC(=O)[C@H](CCCNC(=N)N)NC(=O)[C@H](CC(=O)O)NC(=O)[C@H](CCSC)NC(=O)[C@H](CCCNC(=N)N)NC(=O)CNC(=O)CNC(=O)[C@H](Cc2ccccc2)NC(=O)[C@@H](NC(=O)[C@H](CO)NC(=O)[C@H](CO)NC(=O)[C@H](CCCNC(=N)N)NC(=O)[C@H](CCCNC(=N)N)NC(=O)[C@H](CC(C)C)NC(=O)[C@@H](N)CO)CSSC[C@@H](C(=O)N[C@@H](CC(N)=O)C(=O)N[C@@H](CO)C(=O)N[C@@H](Cc2ccccc2)C(=O)N[C@@H](CCCNC(=N)N)C(=O)N[C@@H](Cc2ccc(O)cc2)C(=O)O)NC(=O)CNC(=O)[C@H](CC(C)C)NC(=O)CNC(=O)[C@H](CO)NC(=O)[C@H](CCC(N)=O)NC(=O)[C@H](C)NC(=O)CNC1=O", "note": "[ANP, human atrial natriuretic peptide, reference compound]", "values": [
      {"measurement": "effect on amplitude of intracellular Ca2+ fluxes in beta cells, in words", "setting": "[1]", "result": "suppressed beta cell function"},
      {"measurement": "pancreatic beta cell Ca2+ spiking frequency", "setting": "[1]; low (0.1 nm) but not high (10 nm) concentration, n = 5-7 islets for each concentration", "result": "stimulate increases"}
    ]},
    {"compound": "CCN(CC)c1ccc(/N=N/c2ccc(S(=O)(=O)NC(=O)NC3CCCCC3)cc2)cc1", "note": "[JB253]", "values": [
      {"measurement": "degradation of the diazene unit", "setting": "[2]", "result": "not the case"}
    ]},
    {"compound": "CC[C@H](C)[C@@H]1NC(=O)[C@H](CCCNC(=N)N)NC(=O)[C@H](CC(=O)O)NC(=O)[C@H](CCSC)NC(=O)[C@H](CCCNC(=N)N)NC(=O)CNC(=O)CNC(=O)[C@H](Cc2ccccc2)NC(=O)[C@@H](NC(=O)[C@H](CO)NC(=O)[C@H](CO)NC(=O)[C@H](CCCNC(=N)N)NC(=O)[C@H](CCCNC(=N)N)NC(=O)[C@H](CC(C)C)NC(=O)[C@@H](N)CO)CSSC[C@@H](C(=O)N[C@@H](CC(N)=O)C(=O)N[C@@H](CO)C(=O)N[C@@H](Cc2ccccc2)C(=O)N[C@@H](CCCNC(=N)N)C(=O)N[C@@H](Cc2ccc(O)cc2)C(=O)O)NC(=O)Cc2cccc(c2)/N=N\\c2cccc(c2)CNC(=O)[C@H](CCC(N)=O)NC(=O)[C@H](C)NC(=O)CNC1=O", "note": "[cis-TOP271]", "values": [
      {"measurement": "speed of the initial vasodilation, cis- compared to trans-TOP271", "setting": "[3]; 400 nM, aortic rings", "result": 1.5, "unit": "×"},
      {"measurement": "vasodilation of pre-constricted aortic rings, in words", "setting": "[3]; 400 nM", "result": "potent vasodilation"},
      {"measurement": "vasodilation concentration-response, cis- versus trans-isomer", "setting": "[3]; pre-illuminated isomers, 100 nM to 1 μM range, pre-constricted aortic rings", "result": "increased potency"},
      {"measurement": "fold higher potency of cis- over trans-isomer for cGMP generation", "setting": "NPR-A", "result": 4, "unit": "fold"},
      {"measurement": "restoration of beta cell function after blue light (458–482 nm) trans-isomerisation", "setting": "[1]; cis-TOP271 applied, then blue light, n = 5 islets", "result": "only partial"},
      {"measurement": "effect on amplitude of intracellular Ca2+ fluxes in beta cells, in words", "setting": "[1]", "result": "robustly suppressed Ca^2+ rises"}
    ]},
    {"compound": "CC[C@H](C)[C@@H]1NC(=O)[C@H](CCCNC(=N)N)NC(=O)[C@H](CC(=O)O)NC(=O)[C@H](CCSC)NC(=O)[C@H](CCCNC(=N)N)NC(=O)CNC(=O)CNC(=O)[C@H](Cc2ccccc2)NC(=O)[C@@H](NC(=O)[C@H](CO)NC(=O)[C@H](CO)NC(=O)[C@H](CCCNC(=N)N)NC(=O)[C@H](CCCNC(=N)N)NC(=O)[C@H](CC(C)C)NC(=O)[C@@H](N)CO)CSSC[C@@H](C(=O)N[C@@H](CC(N)=O)C(=O)N[C@@H](CO)C(=O)N[C@@H](Cc2ccccc2)C(=O)N[C@@H](CCCNC(=N)N)C(=O)N[C@@H](Cc2ccc(O)cc2)C(=O)O)NC(=O)Cc2cccc(c2)/N=N/c2cccc(c2)CNC(=O)[C@H](CCC(N)=O)NC(=O)[C@H](C)NC(=O)CNC1=O", "note": "[trans-TOP271]", "values": [
      {"measurement": "vasodilation of pre-constricted aortic rings, in words", "setting": "[3]; 400 nM", "result": "strong vasodilation"},
      {"measurement": "effect on amplitude of intracellular Ca2+ fluxes in beta cells, in words", "setting": "[1]", "result": "only a small decrease"}
    ]},
    {"compound": "c1ccc(/N=N/c2ccccc2)cc1", "note": "[unsubstituted azobenzene, azobenzene]", "values": [
      {"measurement": "k obs thermal relaxation", "setting": "[4]", "result": "3.58 × 10^–4 a.u. min^–1"}
    ]}
  ]
}
